Values of other authors in patent US20170315129A1, “CANCER CELL DETECTION METHOD USING LIVING BODY-DERIVED CELLS OF BIOLOGICAL ORIGIN” (Hirosaki University, priority 2014, published 2017).

System: mammalian cells
Conditions: kinetics comparable to a radiolabeled D-glucose derivative; cited from earlier work

**Q.** With O=[N+]([O-])c1ccc(N[C@H]2C(O)O[C@H](CO)[C@@H](O)[C@@H]2O)c2nonc12 (stereo partly shown) [2-NBDG] as the compound, how does the “uptake into mammalian cells” value read?
**A.** taken up into mammalian cells through glucose transporters
